# Tests used:
# [1] = test system: Bacteroides fragilis ATCC 25285 L1011; experiment: MIC by microbroth dilution; assay type: cell-based; conditions: 0,01% BSA, 10^5 CFU/ml, 48 h, anaerobic, Wilkins-Chalgren broth
# Experimental: (§1) The minimal inhibitory concentration (MIC) has been determined by microbroth dilution methodology, in the presence of 0,01% (w/v) of bovine serum albumin (BSA). BSA is added to the diluent to avoid possible adherence of the compounds of the invention to the plastic surface of the microtiter wells, as disclosed also by B. Goldstein et al., Antimicrobial Agents and Chemotherapy, 37 (1993), 741-745.
# (§2) Inocula were 10^4 CFU/ml, except for Propionibacterium acnes and Bacteroides fragilis (10^5 CFU/ml) MICs were read after 18-24 h, except for Haemophilus influenzae, P. acnes, B. fragilis (48 h).
# (§3) All microorganisms were incubated at 37° C.; H. influenzae in a 5% CO2 atmosphere, anaerobes in a N2 --CO2 --H2 (80:10:10) mixture; other organisms in air.
# (§4) The growth media are: Oxoid Iso-Sensitest broth for staphylococci and Enterococcus faecalis); Difco Todd Hewitt broth for streptococci; Difco brain heart infusion broth+1% Difco Supplement C. for H. influenzae; Difco Wilkins-Chalgren broth for anaerobes.
# [2] = test system: Enterococcus faecalis ATCC 7080 L149; experiment: MIC by microbroth dilution; assay type: cell-based; conditions: Enterococc. faecalis ATCC 7080 L149; 0,01% BSA; 10^4 CFU/ml; 18-24 h; Iso-Sensitest broth
# Experimental: as §1, §2, §3, §4
# [3] = test system: Staphylococcus aureus L165; experiment: MIC by microbroth dilution; assay type: cell-based; conditions: 0,01% BSA, inoculum 10^4 CFU/ml, read after 18-24 h, Iso-Sensitest broth
# Experimental: as §1, §2, §3, §4
# [4] = test system: Streptococcus pyogenes L49; experiment: MIC by microbroth dilution; assay type: cell-based; conditions: 0,01% BSA, 10^4 CFU/ml, 18-24 h, Todd Hewitt broth
# Experimental: as §1, §2, §3, §4
# [5] = test system: Staph. epidermidis ATCC 12228 L147; experiment: MIC by microbroth dilution; assay type: cell-based, Staphylococcus epidermidis; conditions: 0,01% BSA, 10^4 CFU/ml, 18-24 h, Iso-Sensitest broth
# Experimental: as §1, §2, §3, §4
# Staph. haemolyticus L602 = experiment: MIC by microbroth dilution; assay type: cell-based, Staphylococcus haemolyticus; conditions: 0,01% BSA, 10^4 CFU/ml, 18-24 h, Iso-Sensitest broth
# Experimental: as §1, §2, §3, §4
# Strept. pneumoniae L44 = experiment: MIC by microbroth dilution; assay type: cell-based, Streptococcus pneumoniae; conditions: 0,01% BSA, 10^4 CFU/ml, 18-24 h, Todd Hewitt broth
# Experimental: as §1, §2, §3, §4
# [6] = test system: Propionibact. acnes ATCC 6919 L1014; experiment: MIC by microbroth dilution; assay type: cell-based, Propionibacterium acnes; conditions: 0,01% BSA, 10^5 CFU/ml, 48 h, anaerobic, Wilkins-Chalgren broth
# Experimental: as §1, §2, §3, §4
# [7] = test system: Haemoph. influenzae ATCC 19418 L970; experiment: MIC by microbroth dilution; assay type: cell-based, Haemophilus influenzae; conditions: 0,01% BSA, 10^4 CFU/ml, 48 h, 5% CO2, brain heart infusion broth+1% Supplement C
# Experimental: as §1, §2, §3, §4
# Strept. sanguis L1721 = experiment: MIC by microbroth dilution; assay type: cell-based, Streptococcus sanguis; conditions: 0,01% BSA, 10^4 CFU/ml, 18-24 h, Todd Hewitt broth
# Experimental: as §1, §2, §3, §4
# Strept. agalactiae L310 = experiment: MIC by microbroth dilution; assay type: cell-based, Streptococcus agalactiae; conditions: 0,01% BSA, 10^4 CFU/ml, 18-24 h, Todd Hewitt broth
# Experimental: as §1, §2, §3, §4
# gram positive bacteria = conditions: from K. Shimanaka et al.; cited from earlier work
Structure (SMILES),MIC of the compounds [1],MIC of the compounds [2],MIC of the compounds [3],MIC of the compounds [4],MIC of the compounds [5],MIC of the compounds (Strept. pneumoniae L44),MIC of the compounds [6],MIC of the compounds [7],MIC of the compounds (Strept. sanguis L1721),MIC of the compounds (Strept. agalactiae L310),MIC of the compounds (Staph. haemolyticus L602),antimicrobial activity (gram positive bacteria)
CNC(=O)CC1NC(=O)c2csc(n2)-c2ccc(-c3nc(C4=NC(C(=O)NC5CNC(C(N)=O)C5)CO4)cs3)nc2-c2csc(n2)-c2csc(n2)C(C(O)c2ccccc2)NC(=O)CNC(=O)c2nc(sc2COC)C(C(C)C)NC(=O)c2nc1sc2C.O=C(O)C(F)(F)F (mixture of isomers) [Compound 13],> 128 µg/mL,0.06 µg/mL,0.13 µg/mL,4 µg/mL,0.5 µg/mL,0.5 µg/mL,0.13 µg/mL,128 µg/mL,,,0.5 µg/mL,
CNC(=O)CC1NC(=O)c2csc(n2)-c2ccc(-c3nc(C4=NC(C(=O)N(C)CCN(C)C)CO4)cs3)nc2-c2csc(n2)-c2csc(n2)C(C(O)c2ccccc2)NC(=O)CNC(=O)c2nc(sc2COC)C(C(C)C)NC(=O)c2nc1sc2C (stereo not shown) [Compound 4s],8 µg/mL,0.016 µg/mL,0.06 µg/mL,1 µg/mL,0.06 µg/mL,0.25 µg/mL,0.03 µg/mL,64 µg/mL,0.13 µg/mL,0.5 µg/mL,0.06 µg/mL,
CNC(=O)CC1NC(=O)c2csc(n2)-c2ccc(-c3nc(C4=NC(C(=O)N5CCCC5C(N)=O)CO4)cs3)nc2-c2csc(n2)-c2csc(n2)C(C(C)C)NC(=O)CNC(=O)c2csc(n2)C(C(C)C)NC(=O)c2nc1sc2C (stereo not shown) [amythiamicin factor A],,,,,,,,,,,,shows antimicrobial activity against gram positive bacteria

# Now from value to compound, other results behind:
MIC of the compounds [1],MIC of the compounds [2],MIC of the compounds [3],MIC of the compounds [4],MIC of the compounds [5],MIC of the compounds (Strept. pneumoniae L44),MIC of the compounds [6],MIC of the compounds [7],MIC of the compounds (Strept. sanguis L1721),MIC of the compounds (Strept. agalactiae L310),Structure (SMILES),MIC of the compounds (Staph. haemolyticus L602),antimicrobial activity (gram positive bacteria)
4 µg/mL,0.016 µg/mL,0.06 µg/mL,1 µg/mL,0.13 µg/mL,0.13 µg/mL,0.016 µg/mL,16 µg/mL,0.13 µg/mL,2 µg/mL,CNC(=O)CC1NC(=O)c2csc(n2)-c2ccc(-c3nc(C4=NC(C(=O)N(C)CCN5CCN(CCO)CC5)CO4)cs3)nc2-c2csc(n2)-c2csc(n2)C(C(O)c2ccccc2)NC(=O)CNC(=O)c2nc(sc2COC)C(C(C)C)NC(=O)c2nc1sc2C (mixture of isomers) [Compound 19],0.13 µg/mL,
8 µg/mL,0.03 µg/mL,0.03 µg/mL,1 µg/mL,0.06 µg/mL,0.5 µg/mL,0.016 µg/mL,8 µg/mL,0.5 µg/mL,2 µg/mL,CNC(=O)CC1NC(=O)c2csc(n2)-c2ccc(-c3nc(C4=NC(C(=O)N5CCC(N(C)C)CC5)CO4)cs3)nc2-c2csc(n2)-c2csc(n2)C(C(O)c2ccccc2)NC(=O)CNC(=O)c2nc(sc2COC)C(C(C)C)NC(=O)c2nc1sc2C (stereo not shown) [Compound 10s],0.13 µg/mL,
8 µg/mL,0.016 µg/mL,0.06 µg/mL,1 µg/mL,0.06 µg/mL,0.13 µg/mL,0.016 µg/mL,8 µg/mL,,,CNC(=O)CC1NC(=O)c2csc(n2)-c2ccc(-c3nc(C4=NC(C(=O)N(C)CCN5CCN(CCO)CC5)CO4)cs3)nc2-c2csc(n2)-c2csc(n2)C(C(O)c2ccccc2)NC(=O)CNC(=O)c2nc(sc2COC)C(C(C)C)NC(=O)c2nc1sc2C (stereo not shown) [Compound 19s],0.13 µg/mL,

# Source: patent US5891869A, “Basic oxazoline-amide derivatives of GE2270 and GE2270-like antibiotics” (Biosearch Italia, S.p.A., priority 1995, dated 1999)
